Experimental data reported in patent publication US4101537A, “Octapeptides and methods for their production” (Parke, Davis & Company, priority 1977, dated 1978).
Values joined by “and” are separate entries in the source; they are usually repeats but may differ in a detail not shown here. Equal entries are not always repeated.

Tested on: LRF (luteinizing hormone releasing factor) induced luteinizing hormone (LH) release
Test: LRF antagonist activity in vitro in rat anterior pituitary cell cultures
Assay type: cell-based
Details: LRF alone 3.5×10^-10 Molar (LRF Control)
Text: Octapeptides of this invention were screened for LRF antagonist activity in vitro using rat anterior pituitary cell cultures as described by Vale et. al. [Endocrinology, 91, 562 (1972)]. The inhibition of LRF (luteinizing hormone releasing factor) induced luteinizing hormone (LH) release into the culture medium is the endpoint in this in vitro bioassay.

LRF Control: luteinizing hormone releasing factor, the stimulus whose LH release the octapeptides inhibit; also called luteinizing hormone releasing hormone (QHWSYGLRPG; Gonadoliberin-1; UniProt P01148 24-33, looked up)
LH Value: 63.90 ng/mL and 64.13 ng/mL and 40.01 ng/mL
